According to ChEMBL document CHEMBL4130378, “Discovery of pentacyclic triterpene 3β-ester derivatives as a new class of cholesterol ester transfer protein inhibitors” (Eur J Med Chem, 2017):
Blank lines part the entries; values can stand above or below the molecule they belong to.

Assays:
[1] = target: T1, Cholesteryl ester transfer protein (Homo sapiens, UniProt P11597); assay: Inhibition of recombinant human CETP after 3 hrs using fluorescent cholesteryl containing HDL after 3 hrs by fluorescence assay
T1 sequence (P11597 whole entry): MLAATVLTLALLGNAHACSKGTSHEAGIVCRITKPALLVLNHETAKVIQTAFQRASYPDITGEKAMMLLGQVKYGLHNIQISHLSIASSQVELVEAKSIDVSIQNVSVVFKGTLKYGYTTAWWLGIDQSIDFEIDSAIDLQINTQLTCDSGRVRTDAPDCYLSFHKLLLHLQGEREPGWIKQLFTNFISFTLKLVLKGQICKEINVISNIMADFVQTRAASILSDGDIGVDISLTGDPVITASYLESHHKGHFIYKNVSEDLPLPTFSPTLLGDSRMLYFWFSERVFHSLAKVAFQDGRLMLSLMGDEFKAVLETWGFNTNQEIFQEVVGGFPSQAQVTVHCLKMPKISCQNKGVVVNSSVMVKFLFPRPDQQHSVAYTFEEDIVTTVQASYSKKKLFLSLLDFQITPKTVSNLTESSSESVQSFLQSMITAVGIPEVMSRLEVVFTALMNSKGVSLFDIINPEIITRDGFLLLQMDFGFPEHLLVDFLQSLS

[2] = target: T2, Pancreatic triacylglycerol lipase (Sus scrofa, UniProt P00591); assay: Inhibition of porcine pancreatic lipase using 2,3-dimercaptopropan-1-ol tributyrate as substrate preincubated for 5 mins followed by substrate addition measured after 30 mins by colorimetric assay
T2 sequence (P00591 whole entry): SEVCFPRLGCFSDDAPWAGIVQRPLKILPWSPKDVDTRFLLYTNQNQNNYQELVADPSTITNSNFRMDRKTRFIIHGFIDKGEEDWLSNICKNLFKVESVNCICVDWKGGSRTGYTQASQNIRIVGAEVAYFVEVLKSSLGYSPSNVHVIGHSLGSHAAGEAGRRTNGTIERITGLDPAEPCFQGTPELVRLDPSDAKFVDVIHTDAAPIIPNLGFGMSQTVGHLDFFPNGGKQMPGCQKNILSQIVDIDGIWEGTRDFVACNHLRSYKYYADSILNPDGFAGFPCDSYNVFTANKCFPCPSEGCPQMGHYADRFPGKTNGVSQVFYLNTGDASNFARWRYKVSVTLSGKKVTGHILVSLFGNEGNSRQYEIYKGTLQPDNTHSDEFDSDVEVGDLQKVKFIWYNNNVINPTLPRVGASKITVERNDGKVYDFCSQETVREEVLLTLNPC

[3] = Tmax in normal fed guinea pig at 30 mg/kg administered via oral gavage by LC-MS/MS analysis; assay type: ADME, organism-based, Cavia porcellus; details: in vivo
[4] = Terminal half life in normal fed guinea pig at 30 mg/kg administered via oral gavage by LC-MS/MS analysis; assay type: ADME, organism-based, Cavia porcellus; details: in vivo, read-out: beta t1/2 (converted)
[5] = MRT (0 to 48 hrs) in normal fed guinea pig at 30 mg/kg administered via oral gavage by LC-MS/MS analysis; assay type: ADME, organism-based, Cavia porcellus; details: in vivo
[6] = Cmax in normal fed guinea pig at 30 mg/kg administered via oral gavage by LC-MS/MS analysis; assay type: ADME, organism-based, Cavia porcellus; parameters: dose 30 mg/kg, route oral; details: in vivo
[7] = MRT (0 to infinity) in normal fed guinea pig at 30 mg/kg administered via oral gavage by LC-MS/MS analysis; assay type: ADME, organism-based, Cavia porcellus; details: in vivo
[8] = system: Cavia porcellus; assay: Drug level in normal fed guinea pig treated with 3-beta-[(2-Carboxyphenyl)carbonyloxy]-olean-12-en-28-oic acid at 30 mg/kg administered via oral gavage by LC-MS/MS analysis; assay type: ADME, organism-based; details: in vivo
[9] = AUC (0 to 48 hrs) in normal fed guinea pig at 30 mg/kg administered via oral gavage by LC-MS/MS analysis; assay type: ADME, organism-based, Cavia porcellus; parameters: time < 48 hr, dose 30 mg/kg, route oral; details: in vivo
[10] = AUC (0 to infinity) in normal fed guinea pig at 30 mg/kg administered via oral gavage by LC-MS/MS analysis; assay type: ADME, organism-based, Cavia porcellus; parameters: dose 30 mg/kg, route oral, time infinity; details: in vivo
[11] = Octanol-water partition coefficient, log P of the compound at pH 7.4 by HPLC based shake flask method; assay type: physicochemical

IC50 ([1]; read-out: IC50): 4.3 µM
SMILES: CC1(C)CC[C@]2(C(=O)O)CC[C@]3(C)C(=CC[C@@H]4[C@@]5(C)CC[C@H](OC(=O)CCC(=O)O)C(C)(C)[C@@H]5CC[C@]43C)[C@@H]2C1 [OLEANOLIC ACID 3-O-SUCCINATE]

IC50 ([1]; read-out: IC50): 46.6 µM
SMILES: C[C@H]1[C@H](C)CC[C@]2(C(=O)O)CC[C@]3(C)C(=CC[C@@H]4[C@@]5(C)CC[C@H](O)C(C)(C)[C@@H]5CC[C@]43C)[C@H]12 [URSOLIC ACID]

IC50 ([1]; read-out: IC50): 23.1 µM
SMILES: CC1(C)CC[C@]2(C(=O)O)CC[C@]3(C)C(=CC[C@@H]4[C@@]5(C)CC[C@H](OC(=O)CCC(=O)NCCS(=O)(=O)O)C(C)(C)[C@@H]5CC[C@]43C)[C@@H]2C1

IC50 [2]: 182 µM | Tmax [3]: 0.75 h | half-life [4]: 11.7 h | MRT last [5]: 11.7 h | Cmax [6]: 52.2 ng/mL | MRT inf [7]: 15 h | Drug metabolism [8]: Metabolite_Detected | AUC(0-t) at 48 h [9]: 291 ng·h/mL | AUC(0-inf) [10]: 312 ng·h/mL
SMILES: CC1(C)CC[C@]2(C(=O)O)CC[C@]3(C)C(=CC[C@@H]4[C@@]5(C)CC[C@H](O)C(C)(C)[C@@H]5CC[C@]43C)[C@@H]2C1 [OLEANOLIC_ACID]

SMILES: C=C(C)[C@@H]1CC[C@]2(C(=O)O)CC[C@]3(C)[C@H](CC[C@@H]4[C@@]5(C)CC[C@H](O)C(C)(C)[C@@H]5CC[C@]43C)[C@@H]12 [BETULINIC ACID]
IC50 [1]: Not Active

IC50 ([1]; read-out: IC50): 3.5 µM
SMILES: CC1(C)CC[C@]2(C(=O)O)CC[C@]3(C)C(=CC[C@@H]4[C@@]5(C)CC[C@H](OC(=O)CCCC(=O)O)C(C)(C)[C@@H]5CC[C@]43C)[C@@H]2C1

IC50 ([1]; read-out: IC50): 68.5 µM
SMILES: CC1(C)CC[C@]2(C(=O)O)CC[C@]3(C)C(=CC[C@@H]4[C@@]5(C)CC[C@H](OC(=O)CCN6CCOCC6)C(C)(C)[C@@H]5CC[C@]43C)[C@@H]2C1

IC50 ([1]; read-out: IC50): 7 µM
SMILES: CC1(C)CC[C@]2(C(=O)O)CC[C@]3(C)C(=CC[C@@H]4[C@@]5(C)CC[C@H](OC(=O)CCCCC(=O)O)C(C)(C)[C@@H]5CC[C@]43C)[C@@H]2C1

logD [11]: 0.92
SMILES: CCC(CC)CC1(C(=O)Nc2ccccc2SC(=O)C(C)C)CCCCC1 [DALCETRAPIB]
